Experimental data: patent US10960018B2, “Methods and compounds for stimulating read-through of premature termination codons” (The UAB Research Foundation, priority 2016, dated 2021)

Legend:
Assay type in all cases: cell-based, Rat
[1] = system: FRT W1282X cells; experiment: Transepithelial chloride conductance assay in FRT W1282X cells; details: 48 hours; escin 10 μM, G418 250 μg/ml, VX-770 10 μM, VX-809 6 μM, NMDI-14 20 μg/ml, tobramycin 150, gentamicin 250 μg/ml
Protocol: (§1) Stably transfected FRT cells as described herein cells were seeded onto Costar 24-well […] permeable supports at a density of ˜2×10^6 cells/filter and maintained at 37° C. with 5% CO2. Transepithelial resistance was assessed using an epithelial voltmeter to ensure the formation of tight monolayers, as defined by resistance >6 kcm^2. During initial evaluation of agents, cells were treated with compounds (10 μM), vehicle control (0.3% DMSO), or positive control (250 μg/mL G418) for 48 hours before transepithelial conductance (Gt) was assessed; subsequent studies used other concentrations of compounds. Measurements were taken at baseline, after the addition of 20 μM forskolin (FSK, a cAMP agonist that stimulates CFTR activity) and 10 μM CFTRInh-172 (a CFTR-specific inhibitor).
Individual assays were performed as described herein.
As previously reported in the literature, the combination of CFTR correctors (such as VX-809) and CFTR potentiators (such as VX-770) act synergistically to improve CFTR function. […] Compounds alone or in the indicated combination were pre-incubated with FRT W1282X cells for 48 hours. During the assay the baseline conductance (Gt) was initially determined prior to the acute addition of forskolin (20 μM) and VX-770 (10 μM) to stimulate CFTR activity; the CFTR inhibitor, CFTRInh-172 (10 μM), was added to inhibit CFTR activity at the end of the assay. Enhancement of PTC read-through by the compounds of the present disclosure was determined by an increase in CFTR conductance. CFTR conductance also indicated the CFTR was functional as a result of the read-through of the PTC.
Compounds alone or in the indicated combination were pre-incubated with FRT G542X cells for 48 hours. […] Enhancement of PTC read-through by the compounds of the present disclosure was determined by an increase in CFTR conductance. CFTR conductance also indicated the CFTR was functional as a result of the read-through of the PTC.
It has been reported that aminoglycosides interfere with the action read-through stimulating compound. […] CFTR conductance also indicated the CFTR was functional as a result of the read-through of the PTC.
Stimulation of CFTR activity was determined by an increase in CFTR conductance. […] During the assay the baseline conductance (Gt) was initially determined prior to the acute addition of forskolin (20 μM) and GP-5 (10 μM) to stimulate CFTR activity; the CFTR inhibitor, […] (10 μM), was added to inhibit CFTR activity at the end of the assay.
The effect of the read-through stimulating compounds of the present disclosure in combination with the CFTR corrector VX-809 was further examined in FRT cells with the G542X, Y122X and W1282X mutations. […] CFTR conductance also indicated the CFTR was functional as a result of the read-through of the PTC.

[2] = system: FRT G542X cells; experiment: Transepithelial chloride conductance (TECC) assay in FRT G542X cells
Protocol: as §1
In the TECC assay, FRT G542X cells were treated with a single dose (10 μM) of each compound. FRT G542X cells were incubated for 48 hours with the compounds prior or vehicle control (0.3% DMSO). During the assay the baseline conductance (Gt) was initially determined prior to the acute addition of forskolin (20 μM) and VX-770 (10 μM) to stimulate CFTR activity; the CFTR inhibitor, CFTRInh-172 (10 μM), was added to inhibit CFTR activity at the end of the assay. In these experiments, an increase in CFTR conductance indicates the compounds stimulated read-through of the PTC in the constructs tested and that the CFTR was functional.
To prioritize which of the 48 read-through-positive compounds identified would be most efficacious in augmenting PTC read-through and restoring protein function, the TECC assay was repeated (in triplicate) using FRT G542X cells and FRT cells without CFTR (parental cells). Compounds (10 μM) or vehicle control (0.3% DMSO) were incubated for 48 hours with the cells. During the assay the baseline conductance (Gt) was initially determined prior to the acute addition of forskolin (20 μM) and VX-770 (10 μM) to stimulate CFTR activity; the CFTR inhibitor, CFTRInh-172 (10 μM), was added to inhibit CFTR activity at the end of the assay. G418 (250 μg/ml) was used as a positive control. In this assay, an increase in CFTR conductance indicates the compound stimulated read-through of the PTC in the constructs tested and that the CFTR was functional. The 48 compounds tested are provided in the Table 1 below (with the numerical designations corresponding to those shown in FIG. 4).
A series of functional assays was performed to evaluate the efficacy of these lead compounds in greater detail. Using FRT G542X cells, the optimal dose of each compound in augmenting chloride conductance (FIG. 5A) was determined. FRT G542X cells were incubated with compound (1 μM to 30 μM), G418 (250 μg/mL) or vehicle control (0.3% DMSO) for 48 hours. The conductance assay was conducted as described in Example 2 above. In this assay, an increase in CFTR conductance indicates the compounds stimulated read-through of the PTC in the constructs tested and that the CFTR was functional.

[3] = system: FRT wild-type CFTR control cells; experiment: Firefly luciferase reporter assay, wild-type control; details: 300 to 500 μg/ml, 24 hours
Protocol: The luciferase assay was performed on a Pharmakon 1600 library to determine the efficacy of each compound in promoting read-through. 5 ul of each compound as a DMSO stock solution were dissolved in F-12 Ham medium and dispensed into separate wells of 384-well plates (Corning) using a BioMek FX. FRT cells (10,000 cells/well) containing the reporter gene construct (QXN UGAC) were then added using the Matrix WellMate. The plates were incubated for 24 hours at 37° C., 5% CO2, and 95% humidity, after which firefly luciferase activity was determined by equilibrating the plates to room temperature, adding an equal volume of Promega BrightGlo (Promega), and reading enhanced luminescence with an Envision Plate Reader (PerkinElmer) within 5 minutes. […]
To validate these cell lines, the cell lines were treated with G418, a read-through agent with established efficacy in vitro (Bedwell D M, et al.; Nat Med; 3:1280-1284; 1997), at doses up to from 300 to 500 μg/ml. An increase in luciferase activity indicates G418 stimulated read-through of the PTC in the constructs tested. […] For screening purposes, firefly luciferase levels were measured without assessment of Renilla expression as an indication of total construct expression.

`NC[C@H]1O[C@H](O[C@H]2[C@H](O)[C@@H](O[C@H]3O[C@H](CO)[C@@H](O)[C@H](N)[C@H]3O)[C@H](N)C[C@@H]2N)[C@H](N)C[C@@H]1O` [tobramycin] was tested. Which “CFTR function (conductance) in presence of forskolin and VX-770” value (from here on “CFTR function … of forskolin and VX-770”) [1] did it give?
Its value is “did not stimulate CFTR function”.

For gentamicin, which “CFTR function … of forskolin and VX-770” value [1] is on record?
Its value is “did not stimulate CFTR function”.

For `CCOC(=O)c1c(NC(=O)CC2Nc3cc(C)c(C)cc3NC2=O)sc(C)c1C` (stereo not shown) [NMDI-14], which “CFTR function (conductance) in presence of VX-770 and forskolin” value ([2]; 48 hours, escin 10 μM, NMDI-1 80 μg/ml, NMDI-14 20 μg/ml) is on record?
Its value is “significantly increased”.

And the “CFTR function … of forskolin and VX-770” value [1]?
The value was “significantly increased”.

`CN[C@@H]1[C@@H](O)[C@@H](O[C@@H]2[C@@H](O)[C@H](O[C@H]3O[C@H]([C@@H](C)O)[C@@H](O)[C@H](O)[C@H]3N)[C@@H](N)C[C@H]2N)OC[C@]1(C)O` [G418, geneticin] was tested. Which “firefly luciferase activity compared to DMSO-treated vehicle” value [3] did it give?
The value was “no significant effect”.

And the “incubation time of maximal effect on forskolin-induced conductance” value ([2]; 250 μg/ml, 0 to 72 hours)?
The value was 72 h.

What about the “signal intensity at 48 hrs pre-incubation” value ([2]; 250 μg/ml, relative to maximal effect at 72 hrs) of the same compound?
Its value is > 75%.
